Molecules are shown by their SMILES.

Regarding `COc1ccc(S(=O)(=O)C(C)(Cc2ccc3ccccc3c2)C(=O)NO)cc1` (stereo not shown) [Example 52, N-hydroxy-2-(4-methoxy-benzenesulfonyl)-2-methyl-3-naphthalen-2-yl-propionamide], the melting point fell in the range of 185 to 187 °C.
The compound `COc1ccc(S(=O)(=O)C(C(=O)NO)C(C)C)cc1` (stereo not shown) [Example 53, N-Hydroxy-2-(4methoxy-benzenesulfonyl)-3-methyl-butyramide] returned a melting point of 220 °C.
In the case of `COc1ccc(S(=O)(=O)C2(C(=O)NO)CCCC2)cc1` [Example 54, 1-(4-Methoxy-benzenesulfonyl)-cyclopentanecarboxylic acid hydroxyamide], the melting point lay within 89 to 91 °C.
The same measure for `COc1ccc(S(=O)(=O)C(C)(Cc2ccccc2Br)C(=O)NO)cc1` (stereo not shown) [Example 55, 3-(2-Bromo-phenyl)-N-hydroxy-2-(4-methoxy-benzenesulfonyl)-2-methyl-propionamide]: 93 to 96 °C.
`COc1ccc(S(=O)(=O)C(C)(CC=Cc2ccccc2)C(=O)NO)cc1` (stereo not shown) [Example 56, 2-(4-methoxy-benzenesulfonyl)-2-methyl-5-phenyl-pent-4-enoic acid hydroxyamide]: the melting point was in the range of 162 to 164 °C.
The same measure for `COc1ccc(S(=O)(=O)C(CCCc2ccccc2)(CCCc2ccccc2)C(=O)NO)cc1` [Example 57, 2-(4methoxy-benzenesulfonyl)-5phenyl-2-(3-phenyl-propyl)-pentanoic acid hydroxyamide]: 118 to 120 °C; for `C=CCC(CC=C)(C(=O)NO)S(=O)(=O)c1ccc(OC)cc1` [Example 58, 2-allyl-2-(4-methoxy-benzenesulfonyl)-pent-4-enoic acid hydroxyamide]: 114 to 116 °C; for `COc1ccc(S(=O)(=O)C(C)(Cc2cccnc2)C(=O)NO)cc1` (stereo not shown) [Example 61, N-hydroxy-2-(4-methoxy-benzenesulfonyl)-2-methyl-3-pyridin-3-yl-propionamide]: 98 °C.
`CCCCCCCCC(Cc1cccnc1)(C(=O)NO)S(=O)(=O)c1ccc(OC)cc1` (stereo not shown) [Example 62, 2-(4-Methoxy-benzenesulfonyl)-2-pyridin-3-ylmethyl-decanoic acid hydroxyamide] gave a melting point of 62 °C.
On to `COc1ccc(S(=O)(=O)C(CC=C(C)C)(Cc2cccnc2)C(=O)NO)cc1` (stereo not shown) [Example 63, 2-(4-Methoxy-benzenesulfonyl)-5-methyl-2-pyridin-3-ylmethyl-hex-4-enoic acid hydroxyamide], for which the melting point lay in the range of 89 to 92 °C.
Then `COc1ccc(S(=O)(=O)C(C)(Cc2ccc3ncccc3c2)C(=O)NO)cc1` (stereo not shown) [Example 67, N-Hydroxy-2-(4-methoxy-benzensulfonyl)-2-methyl-3-quinolin-6-yl-propionamide], with 206 °C; and `COc1ccc(S(=O)(=O)C(CCCCOc2ccccc2)(Cc2cccnc2)C(=O)NO)cc1` (stereo not shown) [Example 68, 2-(4-Methoxy-benzenesulfonyl)-6-phenoxy-2-pyridin-3-ylmethyl-hexanoic acid hydroxyamide], with 68 °C; and `CCCCC(Cc1cccnc1)(C(=O)NO)S(=O)(=O)c1ccc(OC)cc1` (stereo not shown) [Example 70, 2-(4-Methoxy-benzenesulfonyl)-2-pyridin-3-ylmethyl-hexanoic acid hydroxyamide], with 70 °C.
Then `CCCCCC#CCC(CC#CCCCCC)(C(=O)NO)S(=O)(=O)c1ccc(OC)cc1` [Example 71, 2-(4-methoxy-benzenesulfonyl)-2-oct-2-ynyl-dec-4-ynoic acid hydroxyamide], with 83 to 84 °C; and `CC#CCC(CC#CC)(C(=O)NO)S(=O)(=O)c1ccc(OC)cc1` [Example 72, 2-(4-Methoxy-benzenesulfonyl)-2-but-2-ynyl-hex-4-ynoic acid hydroxyamide], with 141 to 143 °C.
Then `C#CCC(CC#C)(C(=O)NO)S(=O)(=O)c1ccc(OC)cc1` [Example 73, 2-(4-Methoxy-benzenesulfonyl)-2-prop-2-ynyl-pent-4-ynoic acid hydroxyamide], with 156 °C.

What is called melting point is the temperature of the solid-liquid transition.

The values are drawn from patent US6342508B1, “N-hydroxy-2-(Alkyl,Aryl or Heteroaryl sulfanyl, sulfinyl or sulfonyl) 3-substituted alkyl, aryl or heteroarylamides as matrix metalloproteinase inhibitors” (American Cyanamid Company, priority 1997, dated 2002).
